Reference: patent US8735140B2, “Preservation and composition of bioprocess algae for production of lipids, seedstock, and feed” (Kuehnle AgroSystems, Inc., priority 2008, dated 2014)

Tests used:
Type in all cases: cell-based
[1] = test system: Chlorella KAS503; assay: Trehalose preservation, storage by embedding in alginate mat
Method: (§1) Flask cultures (40 ml) of cells are grown to mid-log phase with a density between 3×10^6 and 3×10^7 cells/ml, and are centrifuged. Culture medium is removed after centrifugation, resulting in more concentrated algae cells. Cells are then re-suspended in fresh medium and left overnight. Cells are centrifuged again the next day in order to remove the medium, and are then re-suspended in fresh or salt water without any nutrient. The cell density of the suspension is determined prior to storage under the various treatments. Cells in 40 ml flask cultures are grown to mid-log phase with a density of between 3×10^6 and 3×10^7 cells/ml, and are centrifuged. Culture medium is removed after centrifugation, resulting in more concentrated algae cells. Cells are then re-suspended in ideal glass solution consisting of fresh culture medium and trehalose at a concentration of 0.1M, 0.3M, and 0.5M (dihydrate trehalose 100 from Hayashibara Co. Ltd, Okayama, Japan), respectively, and left overnight with mild agitation. Cells are centrifuged again to remove the ideal glass solution the next day, and are re-suspended in fresh or salt water without any nutrient. The cell density of the resulting suspension is determined prior to storage under the various treatments. (Some cells were also treated with a 0.5M sorbitol solution). In one specific embodiment, 2% (w/v) alginate solution (Sigma-Aldrich A-2033) and 3% CaCl2 solution (Sigma-Aldrich C1016) are prepared in salt water or fresh water medium as required by specific algae species, and autoclave sterilized. Then, 2.0 ml 2% alginate solution is pipetted into each well of a BD Falcon 12-well plate. 0.2 ml algae cell suspension is then pipetted into each well and the mixture is further stirred. The alginate-cell mixture is further sprayed with 3% CaCl2 solution in a sterile pump bottle, allowing the alginate to solidify. After solidification, plates are closed and placed under low light and at ambient temperature. After stored under the above preservation conditions for 5 months, algae cells can be rejuvenated by overlaying alginate/algae mixture with 3.0 ml sterile 5.0% NaPolyphosphate (Sigma Aldrich 305553) and allowing to the mixture sit overnight. The algae/alginate/NaPolyphosphate mixture is then removed from the 12-well plate, diluted with fresh medium (3 parts fresh medium to 1 part cell suspension) and placed under light. Cell viability is determined by comparing the cell growth in control set with the experimental set. Specifically, cell counts are performed on all samples. The averaged density value (in cells per ml) for all the cultures after treatment is defined as “rejuvenation cell count.” In some samples, the percent recovery of cells immediately after storage is also determined. The formulae are illustrated as follows: Growth=(rejuvenation cell count)/(initial cell count) Cell recovery after storage=(cell density after storage)/(initial cell density), with controls set at 100% cell recovery. Viability after storage and rejuvenation in nutrient medium=(Growth of treatment)/(Growth of control)×100%, with controls set at 100% viability

[2] = test system: Chlorella KAS603; assay: as above
Method: as §1

[3] = test system: Synechocystis KAS635; assay: as above; settings: 0.3M trehalose in BG11 only
Method: as §1

[4] = test system: Tetraselmis KAS633; assay: as above
Method: as §1

[5] = test system: algae cells; assay: Trehalose treatment, viability at room temperature under low light
Method: Cells in 40 ml flask cultures are grown to mid-log phase with a density of between 3×10^6 and 3×10^7 cells/ml, and are centrifuged. Culture medium is removed after centrifugation, resulting in more concentrated algae cells. Cells are then re-suspended in ideal glass solution consisting of fresh culture medium and trehalose at a concentration of 0.1M, 0.3M, and 0.5M (dihydrate trehalose 100 from Hayashibara Co. Ltd, Okayama, Japan), respectively, and left overnight with mild agitation. Cells are centrifuged again to remove the ideal glass solution the next day, and are re-suspended in fresh or salt water without any nutrient. The cell density of the resulting suspension is determined prior to storage under the various treatments. (Some cells were also treated with a 0.5M sorbitol solution). Cell viability is determined by comparing the cell growth in control set with the experimental set. Specifically, cell counts are performed on all samples. The averaged density value (in cells per ml) for all the cultures after treatment is defined as “rejuvenation cell count.” In some samples, the percent recovery of cells immediately after storage is also determined. The formulae are illustrated as follows: Growth=(rejuvenation cell count)/(initial cell count) Cell recovery after storage=(cell density after storage)/(initial cell density), with controls set at 100% cell recovery. […]

[6] = 0.3M trehalose in F/2, 21 weeks storage and 3 weeks rejuvenation
[7] = 0.3M trehalose in F/2, 21 weeks storage and 3 weeks rejuvenation in nutrient medium
[8] = 0.3M trehalose in F/2, 21 weeks storage in water (no nutrients)
[9] = 0.3M trehalose in F/2, 21 weeks storage, 0M control = 100%
[10] = 0.3M trehalose in F/2, 21 weeks storage, density after storage/initial density
[11] = 0.3M trehalose in F/2, 21 weeks storage and 3 weeks rejuvenation, 0M control = 100%

## OC[C@H]1O[C@H](O[C@H]2O[C@H](CO)[C@@H](O)[C@H](O)[C@H]2O)[C@H](O)[C@@H](O)[C@@H]1O [trehalose, α-D-glycosyl-α-D-glycosylpyranoside]
[1]; [6]
  Growth: 5.46
[1]; [7]
  Cell number after storage & regrowth: 1.012 × 10^8 cells/ml
[1]; [8]
  Cell number after storage: 1.860 × 10^7 cells/ml
[1]; [9]
  Cell recovery after storage, relative to control: (84%)
[1]; [10]
  Cell recovery after storage: 1.8
[2]; [6]
  Growth: 2.72
[2]; [7]
  Cell number after storage & regrowth: 4.480 × 10^7 cells/ml
[2]; [11]
  % Viability: (149%)
[2]; [8]
  Cell number after storage: 1.646 × 10^7 cells/ml
[2]; [9]
  Cell recovery after storage, relative to control: (221%)
[3]; 21 weeks storage and 3 weeks rejuvenation
  Growth: 4.72
[3]; 21 weeks storage and 3 weeks rejuvenation in nutrient medium
  Cell number after storage & regrowth: 4.620 × 10^7 cells/ml
[3]; 21 weeks storage and 3 weeks rejuvenation, 0M control = 100%
  % Viability: 129%
[3]; 21 weeks storage in water (no nutrients)
  Cell number after storage: 9.798 × 10^6 cells/ml
[3]; 21 weeks storage, 0M control = 100%
  Cell recovery after storage, relative to control: (180%)
[3]; 21 weeks storage, density after storage/initial density
  Cell recovery after storage: 0.29
[4]; [6]
  Growth: 4.63
[4]; [7]
  Cell number after storage & regrowth: 1.375 × 10^7 cells/ml
[4]; [11]
  % Viability: (102%)
[4]; [8]
  Cell number after storage: 2.97 × 10^6 cells/ml
[4]; [9]
  Cell recovery after storage, relative to control: (142%)
[4]; [10]
  Cell recovery after storage: 2.22
[5]
  Period for which cells remain viable: at least 5 months
